Measured values reported in paper PMC1904258, “X-ray Structures of the Signal Recognition Particle Receptor Reveal Targeting Cycle Intermediates” (PLoS ONE, 2007).

Molecular target: T1, FtsY (T. aquaticus) (Thermus aquaticus, UniProt P83749)
T1 construct: FtsY retaining N-terminal helix N1 (naturally lacks A-domain), NG domains; expressed in E. coli BL21(DE3) from pET21; apo/GMPPNP NCS dimer in crystal
T1 sequence (P83749 1-304): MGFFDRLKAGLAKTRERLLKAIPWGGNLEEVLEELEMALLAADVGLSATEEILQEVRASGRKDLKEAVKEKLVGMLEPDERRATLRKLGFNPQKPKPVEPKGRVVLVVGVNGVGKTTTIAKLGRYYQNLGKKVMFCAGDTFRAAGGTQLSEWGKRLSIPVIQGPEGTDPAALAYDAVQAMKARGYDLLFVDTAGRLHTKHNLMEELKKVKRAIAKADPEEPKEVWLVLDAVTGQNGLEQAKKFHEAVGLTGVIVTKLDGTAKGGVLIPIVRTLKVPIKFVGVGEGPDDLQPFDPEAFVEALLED
Assay: X-ray crystal structure of complex ([…] and […] Å)
Assay type: binding
Details: non-hydrolysable GTP analogue; form I (F1, 2.2 Å) grown with MgCl2, no ordered Mg2+; form II (F2, 2.3 Å) without Mg2+; GTPase active site, one monomer of the dimer

Nc1nc2c(ncn2[C@@H]2O[C@H](COP(=O)(O)OP(=O)(O)NP(=O)(O)O)[C@@H](O)[C@H]2O)c(=O)[nH]1 [GMPPNP]
X-ray crystal structure of complex (2.2 and 2.3 Å): one monomer in apo-FtsY and the other FtsY monomer bound with GMPPNP
